According to ChEMBL document CHEMBL1149941, “The design and synthesis of novel hydroxyproline inhibitors of HIV-1 proteinase” (Bioorg Med Chem Lett, 1993):

Biological target: Human immunodeficiency virus type 1 protease (Human immunodeficiency virus 1, UniProt Q72874)
Assay: Inhibitory activity against HIV-1 proteinase

Row | Compound | IC50 [µM]
1 | CC(C)CN1CC(O)(CNC(=O)[C@H]2N[C@@H]([C@H](NC(=O)Cc3ccccc3)C(=O)NCc3ccccc3)SC2(C)C)C[C@H]1C(=O)NC(C)(C)C (stereo not given in full) | 0.07
2 | CC(C)CN1CC(O)(CNC(=O)[C@@H]2N[C@@H]([C@H](NC(=O)Cc3ccccc3)C(=O)NCc3ccccc3)SC2(C)C)C[C@H]1C(=O)NC(C)(C)C (stereo not given in full) | 0.03
3 | CC(C)CN1C[C@](O)([C@H](CC2CCCCC2)NC(=O)CC(C)(C)C)C[C@H]1C(=O)NC(C)(C)C | 9
4 | CC(C)CN1CC(O)(CNC(=O)OC(C)(C)C)C[C@@H]1C(=O)NC(C)(C)C (stereo not given in full) | > 90
5 | CC(C)CN1CC(O)(CNC(=O)OC(C)(C)C)C[C@H]1C(=O)NC(C)(C)C (stereo not given in full) | > 90
